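96-well plates; 48 h exposure; 5 concentrations. Endpoints by linear interpolation between flanking doses. Not reached: highest tested concentration assigned. GI50: concentration for 50% inhibition of growth. TGI: concentration producing complete growth inhibition.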
Tests used:
Assay in all cases: growth of human tumour cells (NCI), 48 h
A549 NSCLC = system: A549 NSCLC
MOLT-4 leukemia = system: MOLT-4 leukemia
MALME-3M melanoma = system: MALME-3M melanoma
RXF 393 renal = system: RXF 393 renal
PC-3 prostate = system: PC-3 prostate
MDA-MB-435 = system: MDA-MB-435
SW-620 colon = system: SW-620 colon
SNB-19 CNS = system: SNB-19 CNS
EKVX NSCLC = system: EKVX NSCLC
SF-268 CNS = system: SF-268 CNS
NCI-H460 lung = system: NCI-H460 lung
HOP-62 NSCLC = system: HOP-62 NSCLC
HL-60(TB) leukemia = system: HL-60(TB) leukemia
ACHN renal = system: ACHN renal
CCRF-CEM leukemia = system: CCRF-CEM leukemia
SK-MEL-2 melanoma = system: SK-MEL-2 melanoma
M14 melanoma = system: M14 melanoma
HS 578T breast = system: HS 578T breast
NCI-H226 lung = system: NCI-H226 lung
UACC-257 melanoma = system: UACC-257 melanoma
DU-145 prostate = system: DU-145 prostate
OVCAR-3 ovarian = system: OVCAR-3 ovarian
TK-10 renal = system: TK-10 renal
IGROV1 ovarian = system: IGROV1 ovarian
UACC-62 melanoma = system: UACC-62 melanoma
786-0 renal = system: 786-0 renal
SF-539 CNS = system: SF-539 CNS
SN12C renal = system: SN12C renal
SF-295 CNS = system: SF-295 CNS
SR leukemia = system: SR leukemia
CAKI-1 renal = system: CAKI-1 renal
OVCAR-8 ovarian = system: OVCAR-8 ovarian
UO-31 renal = system: UO-31 renal
MDA-MB-231 breast = system: MDA-MB-231 breast
RPMI-8226 leukemia = system: RPMI-8226 leukemia
BT-549 breast = system: BT-549 breast
HCC-2998 colon = system: HCC-2998 colon
A498 renal = system: A498 renal
HCT-15 colon = system: HCT-15 colon
SK-OV-3 ovarian = system: SK-OV-3 ovarian
HCT-116 colon = system: HCT-116 colon
OVCAR-5 ovarian = system: OVCAR-5 ovarian
K-562 leukemia = system: K-562 leukemia
HT29 colon = system: HT29 colon
LOX IMVI melanoma = system: LOX IMVI melanoma
U251 CNS = system: U251 CNS
SK-MEL-5 melanoma = system: SK-MEL-5 melanoma
KM12 colon = system: KM12 colon
HOP-92 NSCLC = system: HOP-92 NSCLC
NCI-H23 lung = system: NCI-H23 lung
SNB-75 CNS = system: SNB-75 CNS
T-47D breast = system: T-47D breast
SK-MEL-28 melanoma = system: SK-MEL-28 melanoma
COLO 205 colon = system: COLO 205 colon

Compound COc1cc2nc(-c3cnc(N(C)C)nc3)nc(NC3CCN(Cc4ccccc4)CC3)c2cc1OC has a GI50 (A549 NSCLC) of 0.351 µM, a TGI (A549 NSCLC) of 1.79 µM and a GI50 (MOLT-4 leukemia) of 2.28 µM. The TGI (MOLT-4 leukemia) was 6.36 µM, the GI50 (MALME-3M melanoma) was 1.66 µM and the TGI (MALME-3M melanoma) was 3.42 µM. The GI50 (RXF 393 renal) was 1.63 µM, the TGI (RXF 393 renal) was 3.49 µM and the GI50 (PC-3 prostate) was 1.46 µM. For the same compound, the TGI (PC-3 prostate) was 3.09 µM, the GI50 (MDA-MB-435) was 1.38 µM and the TGI (MDA-MB-435) was 2.81 µM. It also gave a GI50 (SW-620 colon) of 0.442 µM, a TGI (SW-620 colon) of 2 µM and a GI50 (SNB-19 CNS) of 1.2 µM. The TGI (SNB-19 CNS) was 3.1 µM, the GI50 (EKVX NSCLC) was 1.75 µM and the TGI (EKVX NSCLC) was 3.66 µM. The GI50 (SF-268 CNS) was 1.73 µM, the TGI (SF-268 CNS) was 3.72 µM and the GI50 (NCI-H460 lung) was 0.412 µM. It also gave a TGI (NCI-H460 lung) of 1.7 µM, a GI50 (HOP-62 NSCLC) of 1.69 µM and a TGI (HOP-62 NSCLC) of 3.48 µM. For the same compound, the GI50 (HL-60(TB) leukemia) was 1.51 µM, the TGI (HL-60(TB) leukemia) was 3.75 µM and the GI50 (ACHN renal) was 0.927 µM. For the same compound, the TGI (ACHN renal) was 2.17 µM, the GI50 (CCRF-CEM leukemia) was 0.707 µM and the TGI (CCRF-CEM leukemia) was 3.6 µM. The GI50 (SK-MEL-2 melanoma) was 1.8 µM, the TGI (SK-MEL-2 melanoma) was 3.45 µM and the GI50 (M14 melanoma) was 1.5 µM. It also gave a TGI (M14 melanoma) of 3.06 µM, a GI50 (HS 578T breast) of 1.71 µM and a TGI (HS 578T breast) of 3.99 µM. The GI50 (NCI-H226 lung) was 1.73 µM, the TGI (NCI-H226 lung) was 3.92 µM and the GI50 (UACC-257 melanoma) was 1.79 µM. The TGI (UACC-257 melanoma) was 3.66 µM, the GI50 (DU-145 prostate) was 1.57 µM and the TGI (DU-145 prostate) was 3.05 µM. For the same compound, the GI50 (OVCAR-3 ovarian) was 1.69 µM, the TGI (OVCAR-3 ovarian) was 3.27 µM and the GI50 (TK-10 renal) was 1.63 µM. The TGI (TK-10 renal) was 3.08 µM, the GI50 (IGROV1 ovarian) was 1.73 µM and the TGI (IGROV1 ovarian) was 3.43 µM. The GI50 (UACC-62 melanoma) was 1.73 µM, the TGI (UACC-62 melanoma) was 3.29 µM and the GI50 (786-0 renal) was 1.8 µM. It also gave a TGI (786-0 renal) of 3.81 µM, a GI50 (SF-539 CNS) of 1.72 µM and a TGI (SF-539 CNS) of 3.25 µM. The GI50 (SN12C renal) was 1.77 µM, the TGI (SN12C renal) was 3.49 µM and the GI50 (SF-295 CNS) was 1.54 µM. It also gave a TGI (SF-295 CNS) of 2.97 µM, a GI50 (SR leukemia) of 0.273 µM and a TGI (SR leukemia) of 0.938 µM. For the same compound, the GI50 (CAKI-1 renal) was 1.44 µM, the TGI (CAKI-1 renal) was 2.81 µM and the GI50 (OVCAR-8 ovarian) was 1.68 µM. The TGI (OVCAR-8 ovarian) was 3.97 µM, the GI50 (UO-31 renal) was 1.49 µM and the TGI (UO-31 renal) was 3.05 µM. For the same compound, the GI50 (MDA-MB-231 breast) was 1.57 µM, the TGI (MDA-MB-231 breast) was 3.4 µM and the GI50 (RPMI-8226 leukemia) was 1.22 µM. For the same compound, the TGI (RPMI-8226 leukemia) was 3.67 µM, the GI50 (BT-549 breast) was 1.71 µM and the TGI (BT-549 breast) was 3.43 µM. It also gave a GI50 (HCC-2998 colon) of 1.79 µM, a TGI (HCC-2998 colon) of 3.25 µM and a GI50 (A498 renal) of 1.57 µM. For the same compound, the TGI (A498 renal) was 2.94 µM, the GI50 (HCT-15 colon) was 1.01 µM and the TGI (HCT-15 colon) was 2.39 µM. It also gave a GI50 (SK-OV-3 ovarian) of 1.7 µM, a TGI (SK-OV-3 ovarian) of 3.08 µM and a GI50 (HCT-116 colon) of 0.316 µM. For the same compound, the TGI (HCT-116 colon) was 1.32 µM, the GI50 (OVCAR-5 ovarian) was 1.78 µM and the TGI (OVCAR-5 ovarian) was 3.46 µM. It also gave a GI50 (K-562 leukemia) of 0.369 µM, a TGI (K-562 leukemia) of 1.95 µM and a GI50 (HT29 colon) of 1.08 µM. It also gave a TGI (HT29 colon) of 2.54 µM, a GI50 (LOX IMVI melanoma) of 1.52 µM and a TGI (LOX IMVI melanoma) of 3.2 µM. The GI50 (U251 CNS) was 0.222 µM, the TGI (U251 CNS) was 0.573 µM and the GI50 (SK-MEL-5 melanoma) was 1.58 µM. It also gave a TGI (SK-MEL-5 melanoma) of 2.95 µM, a GI50 (KM12 colon) of 1.72 µM and a TGI (KM12 colon) of 3.53 µM. It also gave a GI50 (HOP-92 NSCLC) of 1.03 µM, a TGI (HOP-92 NSCLC) of 2.46 µM and a GI50 (NCI-H23 lung) of 1.69 µM. The TGI (NCI-H23 lung) was 4.11 µM, the GI50 (SNB-75 CNS) was 1.43 µM and the TGI (SNB-75 CNS) was 2.86 µM. The GI50 (T-47D breast) was 1.81 µM, the TGI (T-47D breast) was 4.14 µM and the GI50 (SK-MEL-28 melanoma) was 1.83 µM. It also gave a TGI (SK-MEL-28 melanoma) of 3.58 µM, a GI50 (COLO 205 colon) of 0.637 µM and a TGI (COLO 205 colon) of 2.09 µM.

— PubChem BioAssay (NCI)
